Marks after values point to notes of the source that are not given here.
Experiments:
[1] = Plasma pharmacokinetics of probe drugs and metabolites in healthy male subjects
[2] = both CYP2B6 probe drugs; cited from earlier work
CYP2B6 [3] = experiment: Basel cocktail phenotyping of CYP2B6; type: in vivo, human; settings: plasma, geometric mean (90 % CI)
CYP2C9 = experiment: Basel cocktail phenotyping of CYP2C9; type: in vivo, human; settings: for [los]/[E3174]: plasma, geometric mean (90 % CI); for metabolic ratios at 6 h: the other subjects
p-glycoprotein (pgp) = settings: cited from earlier work
CYP2D6 = experiment: Basel cocktail phenotyping of CYP2D6; type: in vivo, human; settings: plasma, geometric mean (90 % CI)
CYP3A4 = experiment: Basel cocktail phenotyping of CYP3A4; type: in vivo, human; settings: plasma, geometric mean (90 % CI)
CYP2C19 [4] = experiment: Basel cocktail phenotyping of CYP2C19; type: in vivo, human; settings: plasma, geometric mean (90 % CI)
CYP2B6 [5] = settings: cited from earlier work
CYP2B6 [6] = settings: cited from earlier work; remark: listed apart in the source
CYP2C19 [7] = settings: cited from earlier work
CYP1A2 = settings: cited from earlier work
[8] = 4 h, Cocktail + inducer (rifampicin)
[9] = 6 h, Cocktail + inducer (rifampicin)
[10] = 8 h, Cocktail + inducer (rifampicin)
[11] = 2 h, Cocktail + inducer (rifampicin)

O=C1Nc2c(O)cc(Cl)cc2[C@@](C#CC2(O)CC2)(C(F)(F)F)O1 [8,14-dihydroxy-efavirenz]
plasma concentrations after deglucuronidation ([1]; after deglucuronidation): lower than 6 ng/mL
plasma concentrations ([1]; without deglucuronidation): below the limit of quantification

CC(NC(C)(C)C)C(=O)c1cccc(Cl)c1 (stereo not shown) [bupropion]
half-life [2]: 50 to 70 h

O=C1Nc2ccc(Cl)cc2[C@@](C#CC2CC2)(C(F)(F)F)O1 [efavirenz]
[efa]/[OH-efa] (CYP2B6 [3]; [8]): 19.3 (17.9–21.3)***^a
[efa]/[OH-efa] (CYP2B6 [3]; 4 h, Cocktail + inhibitors): 84.1 (71.9–115.0)***
[efa]/[OH-efa] (CYP2B6 [3]; 4 h, Cocktail alone (baseline)): 38.7 (34.8–48.5)
[efa]/[OH-efa] (CYP2B6 [3]; [9]): 23.1 (21.3–25.7)***^a
[efa]/[OH-efa] (CYP2B6 [3]; 6 h, Cocktail + inhibitors): 77.6 (69.3–94.2)***^a
[efa]/[OH-efa] (CYP2B6 [3]; 6 h, Cocktail alone (baseline)): 43.7 (39.5–51.3)
[efa]/[OH-efa] (CYP2B6 [3]; [10]): 27.7 (26.0–30.8)***^a
[efa]/[OH-efa] (CYP2B6 [3]; 8 h, Cocktail + inhibitors): 88.7 (79.7–108.0)***
[efa]/[OH-efa] (CYP2B6 [3]; 8 h, Cocktail alone (baseline)): 53.2 (47.8–62.6)

CCCCc1nc(Cl)c(CO)n1Cc1ccc(-c2ccccc2-c2nn[nH]n2)cc1 [losartan]
[los]/[E3174] (CYP2C9; [11]): 0.44 (0.37–0.96)**^b
[los]/[E3174] (CYP2C9; 2 h, Cocktail + inhibitors): 3.39 (2.66–4.62)ns^f
[los]/[E3174] (CYP2C9; 2 h, Cocktail alone (baseline)): 1.18 (1.17–2.99)
[los]/[E3174] (CYP2C9; [8]): 0.08 (0.06–0.16)**^a
[los]/[E3174] (CYP2C9; 4 h, Cocktail + inhibitors): 1.17 (1.03–2.09)***
[los]/[E3174] (CYP2C9; 4 h, Cocktail alone (baseline)): 0.17 (0.14–0.37)
[los]/[E3174] (CYP2C9; [9]): 0.06 (0.04–0.12)***^c
[los]/[E3174] (CYP2C9; 6 h, Cocktail + inhibitors): 0.55 (0.47–1.01)***^a
[los]/[E3174] (CYP2C9; 6 h, Cocktail alone (baseline)): 0.10 (0.08–0.19)
[los]/[E3174] (CYP2C9; [10]): 0.05 (0.04–0.07) ns^b
[los]/[E3174] (CYP2C9; 8 h, Cocktail + inhibitors): 0.24 (0.20–0.42)***
[los]/[E3174] (CYP2C9; 8 h, Cocktail alone (baseline)): 0.05 (0.04–0.08)
metabolic ratios at 6 h (CYP2C9; baseline): 0.04–0.11
metabolic ratios at 6 h (CYP2C9; inhibition): 0.20–0.53
p-glycoprotein (pgp) substrate (p-glycoprotein (pgp)): transported by p-glycoprotein

COCCc1ccc(OCC(O)CNC(C)C)cc1 (stereo not shown) [metoprolol]
[met]/[OH-met] (CYP2D6; [11]): 1.83 (1.60–2.18) nt^d
[met]/[OH-met] (CYP2D6; 2 h, Cocktail alone (baseline)): 1.93 (1.56–2.47)^e
[met]/[OH-met] (CYP2D6; [8]): 2.02 (1.84–2.31) ns^a
[met]/[OH-met] (CYP2D6; 4 h, Cocktail + inhibitors): 6.60 (5.90–7.85)***
[met]/[OH-met] (CYP2D6; 4 h, Cocktail alone (baseline)): 2.20 (2.00–2.54)
[met]/[OH-met] (CYP2D6; [9]): 1.88 (1.69–2.20)*^a
[met]/[OH-met] (CYP2D6; 6 h, Cocktail + inhibitors): 8.99 (8.33–10.01)***
[met]/[OH-met] (CYP2D6; 6 h, Cocktail alone (baseline)): 2.36 (2.16–2.69)^a
[met]/[OH-met] (CYP2D6; [10]): 1.67 (1.51–1.93) ns^b
[met]/[OH-met] (CYP2D6; 8 h, Cocktail + inhibitors): 9.90(9.06–11.39)***
[met]/[OH-met] (CYP2D6; 8 h, Cocktail alone (baseline)): 2.11 (1.91–2.44)

Cc1ncc2n1-c1ccc(Cl)cc1C(c1ccccc1F)=NC2 [midazolam]
[mid]/[OH-mid] (CYP3A4; [11]): 1.73 (1.54–2.11) ns^a
[mid]/[OH-mid] (CYP3A4; 2 h, Cocktail + inhibitors): 3.46 (3.10–4.29)***
[mid]/[OH-mid] (CYP3A4; 2 h, Cocktail alone (baseline)): 1.31 (1.16–1.77)
[mid]/[OH-mid] (CYP3A4; 4 h, Cocktail alone (baseline)): 1.51 (1.33–1.97)

COc1ccc2[nH]c([S+]([O-])Cc3ncc(C)c(OC)c3C)nc2c1 (stereo not shown) [omeprazole]
[ome]/[OH-ome] (CYP2C19 [4]; [11]): 0.25 (0.22–0.35)**^a
[ome]/[OH-ome] (CYP2C19 [4]; 2 h, Cocktail + inhibitors): 25.8 (22.7–33.2)***
[ome]/[OH-ome] (CYP2C19 [4]; 2 h, Cocktail alone (baseline)): 1.08 (0.90–1.46)
[ome]/[OH-ome] (CYP2C19 [4]; [8]): 0.18 (0.15–0.24)***^a
[ome]/[OH-ome] (CYP2C19 [4]; 4 h, Cocktail + inhibitors): 18.1 (16.0–22.5)***
[ome]/[OH-ome] (CYP2C19 [4]; 4 h, Cocktail alone (baseline)): 0.49 (0.38–0.86)
[ome]/[OH-ome] (CYP2C19 [4]; 6 h, Cocktail + inhibitors): 14.6 (12.5–18.8)nt^a
[ome]/[OH-ome] (CYP2C19 [4]; 6 h, Cocktail alone (baseline)): 0.28 (0.18–0.55)^b

Fc1ccc([C@@H]2CCNC[C@H]2COc2ccc3c(c2)OCO3)cc1 [paroxetine]
CYP2B6 inhibition in vitro (CYP2B6 [5]): CYP2B6 inhibitor in vitro

CO[C@H]1/C=C/O[C@@]2(C)Oc3c(C)c(O)c4c(O)c(c(/C=N/N5CCN(C)CC5)c(O)c4c3C2=O)NC(=O)/C(C)=C\C=C\[C@H](C)[C@H](O)[C@@H](C)[C@@H](O)[C@@H](C)[C@H](OC(C)=O)[C@@H]1C [rifampicin]
in vivo inducer class, CYP2B6 (CYP2B6 [6]): moderate inducer (50–80 % decrease in AUC)
in vivo inducer class, 2C19 (CYP2C19 [7]): moderate inducer (50–80 % decrease in AUC)
in vivo inducer class, CYP1A2 (CYP1A2): weak inducer
concentrations in one subject compared with the other subjects ([1]; subject excluded from induction data, higher): approximately 100 fold
